Experimental data taken from ChEMBL document CHEMBL1143640, “Modulators of the human CCR5 receptor. Part 2: SAR of substituted 1-(3,3-diphenylpropyl)-piperidinyl phenylacetamides” (Bioorg Med Chem Lett, 2005).
pIC50: −log10 of the molar value.

Legend:
[1] = biological target: T1, C-C chemokine receptor type 5 (Homo sapiens, UniProt P51681); test: Displacement of [125I]-MIP-1 alpha from human C-C chemokine receptor type 5 expressed in CHO cells; assay type: cell-based
[2] = In vitro intrinsic clearance against rat hepatocytes
[3] = Area under the plasma concentration curve was determined at 0-6 hours in rat after ~2 mg/kg oral dosage; n=2
[4] = Clearance in rat after 1 mg/kg i.v. dosage; n=3; conditions: in vivo, iv
[5] = Bioavailability in rat after 4-10 mg/kg oral dosage; n=3; assay type: ADME, organism-based; conditions: in vivo
[6] = Ability to inhibit the chemotaxis of human AlloT cells in response to MIP-1beta; assay type: functional, cell-based
[7] = biological target: T1, C-C chemokine receptor type 5; test: Inhibition of MIP-1beta stimulated calcium transients in CCR5-expressing CHO cells; assay type: functional, cell-based

T1 sequence (P51681 whole entry): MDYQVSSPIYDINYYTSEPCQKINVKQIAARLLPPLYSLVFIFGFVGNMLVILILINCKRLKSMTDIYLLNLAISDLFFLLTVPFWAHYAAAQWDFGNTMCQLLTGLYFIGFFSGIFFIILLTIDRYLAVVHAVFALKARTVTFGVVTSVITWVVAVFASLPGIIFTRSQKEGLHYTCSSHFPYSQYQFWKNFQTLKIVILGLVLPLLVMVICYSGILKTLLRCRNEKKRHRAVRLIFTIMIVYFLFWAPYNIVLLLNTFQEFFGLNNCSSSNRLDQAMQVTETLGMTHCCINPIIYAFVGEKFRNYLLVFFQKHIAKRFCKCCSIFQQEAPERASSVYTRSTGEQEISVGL

pIC50 [1] | Structure (SMILES) | other results
> 9.00 | CCN(C(=O)Cc1ccc(S(C)(=O)=O)cc1)C1CCN(CCC(c2ccccc2)c2ccc(C#N)cc2)CC1 (stereo not given) | 
6.89 | CCN(C(=O)Cc1ccc(S(C)(=O)=O)cc1)C1CCN(CCC(c2ccccc2)c2ccc(NC(=O)c3ccccc3)cc2)CC1 (stereo not given) | 
6.59 | CCN(C(=O)Cc1ccc(S(C)(=O)=O)cc1)C1CCN(CCC(c2ccccc2)c2ccc(C(N)=O)cc2)CC1 (stereo not given) | 
7.55 | CCN(C(=O)Cc1ccc(S(C)(=O)=O)cc1)C1CCN(CCC(c2ccccc2)c2ccc(C)cc2)CC1 (stereo not given) | 
8.15 | CCN(C(=O)Cc1ccc(S(C)(=O)=O)cc1)C1CCN(CCC(c2ccccc2)c2ccc(C(=O)OC)cc2)CC1 (stereo not given) | Clint [2]: > 150 uL/min/10e6 cells
7.92 | CCN(C(=O)Cc1ccc(S(C)(=O)=O)cc1)C1CCN(CCC(c2ccccc2)c2ccc(SC)cc2)CC1 (stereo not given) | 
7.11 | CCN(C(=O)Cc1ccc(S(C)(=O)=O)cc1)C1CCN(CCC(c2ccccc2)c2ccc(Cl)c(Cl)c2)CC1 (stereo not given) | 
 | CCN(C(=O)Cc1ccc(S(C)(=O)=O)cc1)C1CCN(CCC(c2ccc(NS(C)(=O)=O)cc2)c2cccc(F)c2)CC1 (stereo not given) | AUC at 6 h [3]: 0.002 µM·h; Clint [2]: 15 uL/min/10e6 cells
6.70 | CCN(C(=O)Cc1ccc(S(C)(=O)=O)cc1)C1CCN(CCC(c2ccccc2)c2ccc(N)cc2)CC1 (stereo not given) | 
7.89 | C=CCN(C(=O)Cc1ccc(S(C)(=O)=O)cc1)C1CCN(CCC(c2ccccc2)c2ccccc2)CC1 | clearance [4]: 54 mL/min/kg; AUC at 6 h [3]: 0.132 µM·h; bioavailability [5]: 11%; Clint [2]: 54 uL/min/10e6 cells
8.10 | CCN(C(=O)Cc1ccc(S(C)(=O)=O)cc1)C1CCN(CCC(c2ccc(NC(C)=O)cc2)c2cccc(F)c2)CC1 (stereo not given) | AUC at 6 h [3]: 0.008 µM·h; Clint [2]: 17 uL/min/10e6 cells
7.74 | CCN(C(=O)Cc1ccc(S(C)(=O)=O)cc1)C1CCN(CCC(c2ccccc2)c2ccc(NS(C)(=O)=O)cc2)CC1 (stereo not given) | pIC50 [6]: 7.51; pIC50 [7]: 7.62
7.96 | CCN(C(=O)Cc1ccc(S(C)(=O)=O)cc1)C1CCN(CCC(c2ccccc2)c2ccc(NS(=O)(=O)Cc3ccccc3)cc2)CC1 (stereo not given) | 
8.23 | CCN(C(=O)Cc1ccc(S(C)(=O)=O)cc1)C1CCN(CCC(c2ccccc2)c2ccc(NC(=O)Cc3ccccc3)cc2)CC1 (stereo not given) | AUC at 6 h [3]: 0.012 µM·h
8.07 | CCN(C(=O)Cc1ccc(S(C)(=O)=O)cc1)C1CCN(CCC(c2ccccc2)c2ccc(Cl)cc2)CC1 (stereo not given) | clearance [4]: 46 mL/min/kg; bioavailability [5]: 3%; Clint [2]: 34 uL/min/10e6 cells
7.74 | CCN(C(=O)Cc1ccc(S(C)(=O)=O)cc1)C1CCN(CCC(c2ccccc2)c2ccccc2)CC1 | 
7.66 | CCN(C(=O)Cc1ccc(S(C)(=O)=O)cc1)C1CCN(CCC(c2ccccc2)c2ccc(NC(=O)C(C)(C)C)cc2)CC1 (stereo not given) | 
7.49 | CS(=O)(=O)c1ccc(CC(=O)N(C2CC2)C2CCN(CCC(c3ccccc3)c3ccccc3)CC2)cc1 | 
6.12 | CCN(C(=O)Cc1ccc(S(C)(=O)=O)cc1)C1CCN(CCC(c2ccc(Cl)cc2)c2ccc(Cl)cc2)CC1 | 
7.07 | CCN(C(=O)Cc1ccc(S(C)(=O)=O)cc1)C1CCN(CCC(c2ccccc2)c2ccc(-c3ccccc3)cc2)CC1 (stereo not given) | 
8.64 | CCN(C(=O)Cc1ccc(S(C)(=O)=O)cc1)C1CCN(CCC(c2ccccc2)c2ccc(C(F)(F)F)cc2)CC1 (stereo not given) | Clint [2]: 37 uL/min/10e6 cells
7.24 | CCN(C(=O)Cc1ccc(S(C)(=O)=O)cc1)C1CCN(CCC(c2ccccc2)c2cccc(Cl)c2)CC1 (stereo not given) | 
7.05 | CCN(C(=O)Cc1ccc(S(C)(=O)=O)cc1)C1CCN(CCC(c2ccc(NC(=O)OC(C)(C)C)cc2)c2cccc(F)c2)CC1 (stereo not given) | 
7.59 | CCN(C(=O)Cc1ccc(S(C)(=O)=O)cc1)C1CCN(CCC(c2ccccc2)c2ccc(NC(C)=O)cc2)CC1 (stereo not given) | 
6.13 | CCN(C(=O)Cc1ccc(S(C)(=O)=O)cc1)C1CCN(CCC(c2ccccc2)c2ccc(NS(=O)(=O)c3ccccc3)cc2)CC1 (stereo not given) | 
7.72 | CCN(C(=O)Cc1ccc(S(C)(=O)=O)cc1)C1CCN(CCC(c2ccc(Cl)cc2)c2cccc(F)c2)CC1 (stereo not given) | 
6.51 | CCN(C(=O)Cc1ccc(S(C)(=O)=O)cc1)C1CCN(CCC(c2ccccc2)c2ccc(F)cc2)CC1 (stereo not given) | 
8.20 | CCN(C(=O)Cc1ccc(S(C)(=O)=O)cc1)C1CCN(CCC(c2ccccc2)c2ccc(OC)cc2)CC1 (stereo not given) | Clint [2]: 41 uL/min/10e6 cells
6.70 | CCN(C(=O)Cc1ccc(S(C)(=O)=O)cc1)C1CCN(CCC(c2ccccc2)c2ccc(NC(=O)OC(C)(C)C)cc2)CC1 (stereo not given) | 

Structure (SMILES) | pIC50 [1] | other results
CCN(C(=O)Cc1ccc(S(C)(=O)=O)cc1)C1CCN(CCC(c2ccc(F)cc2)c2ccc(F)cc2)CC1 | 6.11 | clearance [4]: 10 mL/min/kg; AUC at 6 h [3]: 1.87 µM·h; bioavailability [5]: 56%; Clint [2]: 4 uL/min/10e6 cells
